“Also recorded” adds a separate entry of the source.
Key:
[1] = tested on: SIM-A9 cells; assay: LC-MS determination of total MDA, SIM-A9; type: cell-based, mouse; conditions: all time intervals
[2] = biological target: T1, mGAT2 (Mus musculus, UniProt P31651); assay: [3H]GABA uptake assay, mGAT2; type: cell-based
T1 sequence (P31651 1-614): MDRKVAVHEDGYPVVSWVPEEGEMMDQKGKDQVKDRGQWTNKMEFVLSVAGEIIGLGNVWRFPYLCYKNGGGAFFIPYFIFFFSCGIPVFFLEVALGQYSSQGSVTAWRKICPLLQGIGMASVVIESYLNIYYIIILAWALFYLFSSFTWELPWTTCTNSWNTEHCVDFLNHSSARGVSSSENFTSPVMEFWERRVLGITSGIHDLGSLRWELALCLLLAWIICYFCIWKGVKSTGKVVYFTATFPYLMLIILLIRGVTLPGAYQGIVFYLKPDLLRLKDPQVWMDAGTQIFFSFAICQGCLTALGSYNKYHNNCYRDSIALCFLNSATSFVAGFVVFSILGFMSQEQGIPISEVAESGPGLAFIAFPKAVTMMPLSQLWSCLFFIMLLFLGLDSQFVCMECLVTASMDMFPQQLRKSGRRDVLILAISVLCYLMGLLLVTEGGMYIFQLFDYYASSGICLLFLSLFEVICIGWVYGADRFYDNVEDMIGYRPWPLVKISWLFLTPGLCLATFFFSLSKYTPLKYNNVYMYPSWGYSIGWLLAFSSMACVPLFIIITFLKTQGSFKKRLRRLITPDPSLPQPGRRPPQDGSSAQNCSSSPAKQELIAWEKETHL

[3] = tested on: mice; assay: Forced swim test (FST); type: in vivo; conditions: 1 mg/kg i.p., vs control
Procedure: Animals and housing conditions
In all pharmacodynamic in vivo experiments, except for the Barnes maze (BM) task, adult male Albino Swiss (CD-1) mice weighing between 18 and 22 g and purchased from the Animal Breeding Farm of the Faculty of Pharmacy, Jagiellonian University Medical College were used. In BM task, C57BL/6J mice of the same weight (Animalab, Poland) were used.
Animals were housed in cages (10 mice per cage) at a constant temperature of 22 ± 2 °C, humidity of 55 ± 10%, and a light/dark (12:12) cycle (lights on at 7 AM). Before the experiments, the animals had unlimited access to food and water. […]
Briefly, mice were individually placed in a glass cylinder (25 cm high, 10 cm in diameter) containing 11 cm of water maintained at 23–25 °C and were left therein for 6 min. […] The total duration of immobility was measured during the final 4 min of a 6-min test session. […]
(§1) The four-plate apparatus (FPT; Bioseb, France) consists of a cage (25 × 18 × 16 cm) that is floored with four rectangular metal plates (11 × 8 cm). […] The number of punished crossings was counted […]
(§2) of the closed arms. […] The following parameters were measured in this test: time spent in open arms of the EPM device and the number of entries to open arms. […]

[4] = tested on: mice; assay: Locomotor activity test; type: in vivo; conditions: 10 and 30 mg/kg i.p.
Procedure: Effect on depressive-like behavior - forced swim test
The experiment was carried out according to Porsolt et al.[48] with small modifications.
Briefly, mice were individually placed in a glass cylinder (25 cm high, 10 cm in diameter) containing 11 cm of water maintained at 23–25 °C and were left therein for 6 min. A mouse was regarded as immobile when it remained floating on the water, making only small movements to keep its head above it. The total duration of immobility was measured during the final 4 min of a 6-min test session.
Effect on anxiety - four-plate test
as §1, with “cm). The plates are separated from one another by a 4 mm gap, and they are connected to an electroshock generator.” for “cm).”
as §2
crossings) were counted during the next 60 min of the test. […]
For the analysis of data obtained in the in vivo tests GraphPad Prism software (v. 9.0, CA, USA) was used. Numerical results from the tests were expressed as mean ± standard error of the mean (SEM). […]
In this fear-motivated task the effect of 6 on scopolamine-induced cognitive dysfunction was assessed. […]

SMILES: O[C@H](CNCC1CC1)[C@H](Cc1ccccc1)NC1c2ccccc2-c2ccccc21 [Compound 6]
- increase in intracellular level of MDA [1]: no significant increase
- IC50 [2]: 10.7 µM
- duration of immobility [3]: reduced immobility; also recorded: mild yet statistically significant antidepressant activity
- locomotor activity [4]: None of these doses significantly affected the locomotor activity

Reference: publication PMC11796312, “Multifunctional, Fluorene‐Based Modulator of Cholinergic and GABAergic Neurotransmission as a Novel Drug Candidate for Palliative Treatment of Alzheimer's Disease” (Angewandte Chemie (International Ed. in English), 2024)
